In paper PMC5633740, “Identification of YfiH and the Catalase CatA As Polyphenol Oxidases of Aeromonas media and CatA as a Regulator of Pigmentation by Its Peroxyl Radical Scavenging Capacity” (Frontiers in Microbiology, 2017):

Target: T1, CatA (PPO2; catalase; His6-tagged CatA) (Aeromonas media, UniProt A0AAE7AJ24)
T1 construct: gene E4188_09760; full ORF (1,449 bp) in pET-26b(+) NdeI/XhoI, His6-tagged, expressed in E. coli BL21(DE3), Ni-NTA; 55 kDa peak by gel filtration
Assay: native-PAGE activity staining of purified protein
Assay type: biochemical
Conditions: 5 mM L-DOPA, 50 mM Tris-HCl pH 8.0, 30 °C, 30 min; qualitative

T1 sequence (A0AAE7AJ24 entry or part of it): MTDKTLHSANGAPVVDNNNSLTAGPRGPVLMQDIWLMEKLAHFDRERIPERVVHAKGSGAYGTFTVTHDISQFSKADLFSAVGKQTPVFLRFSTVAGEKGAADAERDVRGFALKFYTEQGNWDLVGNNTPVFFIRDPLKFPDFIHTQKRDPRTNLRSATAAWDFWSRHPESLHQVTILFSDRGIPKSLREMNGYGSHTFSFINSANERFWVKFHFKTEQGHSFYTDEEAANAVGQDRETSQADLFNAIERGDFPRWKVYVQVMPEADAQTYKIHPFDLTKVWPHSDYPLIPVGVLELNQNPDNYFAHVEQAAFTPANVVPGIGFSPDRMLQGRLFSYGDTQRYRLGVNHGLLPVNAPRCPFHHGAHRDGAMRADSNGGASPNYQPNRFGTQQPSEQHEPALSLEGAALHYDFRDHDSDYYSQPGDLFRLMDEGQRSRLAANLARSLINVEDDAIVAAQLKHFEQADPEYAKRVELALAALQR

In the case of `N[C@@H](Cc1ccc(O)c(O)c1)C(=O)O` [L-DOPA, L-3,4-dihydroxyphenylalanine], the “native-PAGE activity staining of purified protein” value is reported as “All His6-tagged proteins exhibited both catalase and PPO activity”.
